Results reported in patent US12157730B2, “Heteroaryl derivative, method for producing same, and pharmaceutical composition comprising same as effective component” (VORONOI INC., priority 2019, dated 2024).

target: T1, Ba/F3 cell EGFR Exon20 ins NPH (Homo sapiens, UniProt P00533, INS773NPH); experiment: Ba/F3 cell proliferation suppression, EGFR Exon20 ins NPH; assay type: cell-based; conditions: GI50 class; Ba/F3 cell line with NPH inserted at Exon20 of EGFR; 72 hours
T1 construct: expressed in transfected cells; host or cells: Ba/F3
Method in brief: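 72 h compound exposure, 0.3 nM–50 um (12 points, 3:1 dilution in DMSO); viability by CellTiter-Glo luminescence. Ba/F3 medium: RPMI-1640, 10% FBS, 5 ng/ml IL-3, 1 ug/ml puromycin for transduced cells. GI50 vs control, n=3.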

Question: For `C=CC(=O)Nc1cc(Nc2cc(N3OCC[C@@H]3c3ccccc3)ncn2)c(OC)cc1N1CCC(N2CCN(CCN(C)C)CC2)CC1` [compound 739, N-(2-(4-(4-(2-(dimethylamino)ethyl)piperazine-1-yl)piperidine-1-yl)-4-methoxy-5-((6-((R)-3-phenylisoxazolidine-2-yl)pyrimidine-4-yl)amino)phenyl) acrylamide], which “Ba/F3 (NPH) Activity” value is on record?
Answer: The value was “B (50 nM ≤ GI50 < 500 nM)”.

Question: With `C=CC(=O)Nc1cc(Nc2cc(N3OCC[C@H]3c3c(F)cccc3F)ncn2)c(OC)cc1N1CCC(N2CCC(N(C)C)CC2)CC1` [compound 369, N-(5-((6-((S)-3-(2,6-difluorophenyl)isoxazolidine-2-yl)pyrimidine-4-yl)amino)-2-(4-(dimethylamino)-[1,4'-bipiperidine]-1'-yl)-4-methoxyphenyl) acrylamide] as the molecule, how does the “Ba/F3 (NPH) Activity” value read?
Answer: The value was “C (500 nM ≤ GI50 < 5000 nM)”.

Question: For `C=CC(=O)Nc1cc(Nc2cc(N3OCC[C@@H]3c3ccc(F)c(Cl)c3)ncn2)c(OC)cc1N1CCC(N2CCN(C3CCCC3)CC2)CC1` [Example 99, N-(5-((6-((R)-3-(3-chloro-4-fluorophenyl)isoxazolidine-2-yl)pyrimidine-4-yl)amino)-2-(4-(4-cyclopentylpiperazine-1-yl)piperidine-1-yl)-4-methoxyphenyl) acrylamide], which “Ba/F3 (NPH) Activity” value is on record?
Answer: The value was “A (GI50 < 50 nM)”.

Question: With `C=CC(=O)Nc1cc(Nc2cc(N3OCC[C@@H]3c3ccc(F)c(F)c3)ncn2)c(OC)cc1N1CC[C@@H](N2CCOCC2)C1` [compound 578, N-(5-((6-((R)-3-(3,4-difluorophenyl)isoxazolidine-2-yl)pyrimidine-4-yl)amino)-4-methoxy-2-((R)-3-morpholinopyrolidine-1-yl)phenyl)acrylamide] as the molecule, how does the “Ba/F3 (NPH) Activity” value read?
Answer: The value was “B (50 nM ≤ GI50 < 500 nM)”.

Question: How did the “Ba/F3 (NPH) Activity” value turn out when `C=CC(=O)Nc1cc(Nc2cc(N3OCC[C@@H]3c3cc(F)ccc3F)ncn2)c(OC)cc1N1CCC(N2C[C@H]3C[C@@H]2CO3)CC1` [Example 259, N-(2-(4-((1R,4R)-2-oxa-5-azabicyclo[2.2.1]heptane-5-yl)piperidine-1-yl)-5-((6-((R)-3-(2,5-difluorophenyl)isoxazolidine-2-yl)pyrimidine-4-yl)amino)-4-methoxyphenyl) acrylamide] was run?
Answer: Its value is “A (GI50 < 50 nM)”.

Question: Which “Ba/F3 (NPH) Activity” value does the source give for `C=CC(=O)Nc1cc(Nc2cc(N3OCC[C@@H]3c3cc(F)cc(F)c3)ncn2)c(OC)cc1N1CC[C@@H](CN(C)C)C1` [compound 625, N-(5-((6-((R)-3-(3,5-difluorophenyl)isoxazolidine-2-yl)pyrimidine-4-yl)amino)-2-((S)-3-((dimethylamino)methyl)pyrolidine-1-yl)-4-methoxyphenyl) acrylamide] here?
Answer: Its value is “A (GI50 < 50 nM)”.

Question: With `C=CCN1CCN(C2CCN(c3cc(OC)c(Nc4cc(N5OCC[C@@H]5c5ccc(Cl)cc5F)ncn4)cc3NC(=O)C=C)CC2)CC1` [Example 211, N-(2-(4-(4-allylpiperazine-1-yl)piperidine-1-yl)-5-((6-((R)-3-(4-chloro-2-fluorophenyl)isoxazolidine-2-yl)pyrimidine-4-yl)amino)-4-methoxyphenyl) acrylamide] as the molecule, how does the “Ba/F3 (NPH) Activity” value read?
Answer: Its value is “A (GI50 < 50 nM)”.

Question: How did the “Ba/F3 (NPH) Activity” value turn out when `C=CC(=O)Nc1cc(Nc2cc(N3OCC[C@@H]3c3cc(F)cc(Cl)c3)ncn2)c(OC)cc1N1CCC(N2C[C@H]3C[C@@H]2CO3)CC1` [compound 590, N-(2-(4-((1R,4R)-2-oxa-5-azabicyclo[2.2.1]heptane-5-yl)piperidine-1-yl)-5-((6-((R)-3-(3-chloro-5-fluorophenyl)isoxazolidine-2-yl)pyrimidine-4-yl)amino)-4-methoxyphenyl) acrylamide] was run?
Answer: Its value is “A (GI50 < 50 nM)”.

Question: `C=CC(=O)Nc1cc(Nc2cc(N3OCC[C@@H]3c3cccc(Cl)c3C)ncn2)c(OC)cc1N1CCC(N2CCN(C(C)C)CC2)CC1` [compound 580, N-(5-((6-((R)-3-(3-chloro-2-methylphenyl)isoxazolidine-2-yl)pyrimidine-4-yl)amino)-2-(4-(4-isopropylpiperazine-1-yl)piperidine-1-yl)-4-methoxyphenyl) acrylamide] was tested. Which “Ba/F3 (NPH) Activity” value did it give?
Answer: Its value is “A (GI50 < 50 nM)”.

Question: How did the “Ba/F3 (NPH) Activity” value turn out when `C=CC(=O)Nc1cc(Nc2cc(N3OCC[C@@H]3c3ccc(F)c(Cl)c3F)ncn2)c(OC)cc1N1CCC(N2CCN(C(C)C)CC2)CC1` [compound 668, N-(5-((6-((R)-3-(3-chloro-2,4-difluorophenyl)isoxazolidine-2-yl)pyrimidine-4-yl)amino)-2-(4-(4-isopropylpiperazine-1-yl)piperidine-1-yl)-4-methoxyphenyl) acrylamide] was run?
Answer: Its value is “B (50 nM ≤ GI50 < 500 nM)”.

Question: Which “Ba/F3 (NPH) Activity” value does the source give for `C=CC(=O)Nc1cc(Nc2cc(N3OCC[C@@H]3Cc3ccccc3)ncn2)c(OC)cc1N1CCN(C(C)=O)CC1` [compound 948, N-(2-(4-acetylpiperazine-1-yl)-5-((6-((S)-3-benzylisoxazolidine-2-yl)pyrimidine-4-yl)amino)-4-methoxyphenyl) acrylamide] here?
Answer: The value was “A (GI50 < 50 nM)”.

Question: Which “Ba/F3 (NPH) Activity” value does the source give for `C=CC(=O)Nc1cc(Nc2cc(N3OCC[C@@H]3c3cccc(Cl)c3C)ncn2)c(OC)cc1N1CCC(N2CCOCC2)CC1` [compound 486, N-(5-((6-((R)-3-(3-chloro-2-methylphenyl)isoxazolidine-2-yl)pyrimidine-4-yl)amino)-4-methoxy-2-(4-morpholinopiperidine-1-yl)phenyl)acrylamide] here?
Answer: Its value is “A (GI50 < 50 nM)”.

Question: With `C=CC(=O)Nc1cc(Nc2cc(N3OCC[C@@H]3Cc3ccccc3)ncn2)c(OC)cc1N1CCC(OCCN(CC)CC)CC1` [compound 978, N-(5-((6-((S)-3-benzylisoxazolidine-2-yl)pyrimidine-4-yl)amino)-2-(4-(2-(diethylamino)ethoxy)piperidine-1-yl)-4-methoxyphenyl) acrylamide] as the molecule, how does the “Ba/F3 (NPH) Activity” value read?
Answer: The value was “C (500 nM ≤ GI50 < 5000 nM)”.

Question: With `C=CC(=O)Nc1cc(Nc2cc(N3OCC[C@@H]3c3ccc(Cl)cc3F)ncn2)c(OC)cc1N1CCC(N2CC[C@@H](N(C)C)C2)CC1` [compound 404, N-(5-((6-((R)-3-(4-chloro-2-fluorophenyl)isoxazolidine-2-yl)pyrimidine-4-yl)amino)-2-(4-((R)-3-(dimethylamino)pyrolidine-1-yl)piperidine-1-yl)-4-methoxyphenyl) acrylamide] as the molecule, how does the “Ba/F3 (NPH) Activity” value read?
Answer: Its value is “B (50 nM ≤ GI50 < 500 nM)”.

Question: How did the “Ba/F3 (NPH) Activity” value turn out when `C=CC(=O)Nc1cc(Nc2cc(N3OCC[C@@H]3c3cccc(F)c3F)ncn2)c(OC)cc1N1CCC(N2CCC(F)(F)CC2)CC1` [compound 341, N-(2-(4,4-difluoro-[1,4'-bipiperidine]-1'-yl)-5-((6-((R)-3-(2,3-difluorophenyl)isoxazolidine-2-yl)pyrimidine-4-yl)amino)-4-methoxyphenyl) acrylamide] was run?
Answer: Its value is “A (GI50 < 50 nM)”.

Question: How did the “Ba/F3 (NPH) Activity” value turn out when `C=CC(=O)Nc1cc(Nc2cc(N3OCC[C@@H]3c3cccc(Cl)c3C)ncn2)c(OC)cc1N1CCC(N2CCN(CCC)CC2)CC1` [compound 582, N-(5-((6-((R)-3-(3-chloro-2-methylphenyl)isoxazolidine-2-yl)pyrimidine-4-yl)amino)-4-methoxy-2-(4-(4-propylpiperazine-1-yl)piperidine-1-yl)phenyl) acrylamide] was run?
Answer: Its value is “A (GI50 < 50 nM)”.
